# Literature values as cited in patent publication US8182834B2, “Ternary non-lamellar lipid compositions” (Camurus AB, priority 2004, dated 2012).
smiles,measurement,setting,value
CCCCCCCC/C=C\CCCCCCCC(=O)OCC(O)CO (centres unmarked) [glycerol monooleate],equilibrium water solubility,room temperature,~10^−7 M
same,Equilibrium solubility concentration,"water, 25 ° C.",~10^−7 M
